Like-named read-outs stand apart in the source and are kept apart here.
Columns and labels:
[1] = target: mouse gastrocnemius myofibrils; assay: Myofibril ATPase, mouse gastrocnemius; assay type: biochemical; details: 21% IIa, 15% IIx, 56% IIb
ADCK3 = target: T1, ADCK3 (Homo sapiens, UniProt Q8NI60); assay: KINOMEscan scanEDGE; assay type: binding; details: 20 uM
T1 construct: purchased Eurofins DiscoverX (KINOMEscan; SAFETYscan E/IC50 ELECT)

ROCK1 = target: T2, ROCK1 (Homo sapiens, UniProt Q13464); assay: SAFETYscan Binding; parameters: dose or concentration left out as unconfirmed; details: read-out: Max Response (%) (Antagonist)
T2 construct: purchased Eurofins DiscoverX (KINOMEscan; SAFETYscan E/IC50 ELECT)
Experimental: (§1) The specificity of EDG-5506 for fast skeletal myosin over other, unrelated proteins was confirmed using two off-target binding and activity screens. […] A second off-target panel (SAFETYscan E/IC50 ELECT, Eurofins DiscoverX) tested in vitro enzyme activity against 78 proteins, including GPCR, ion channel, kinases, nuclear hormone receptors, and transporters. In all assays, the IC50 of EDG-5506 was more than 10 μM (Supplemental Data File 1).

LCK = target: T3, LCK (Homo sapiens, UniProt P06239); assay: SAFETYscan Binding; parameters: dose or concentration left out as unconfirmed; details: read-out: Max Response (%) (Antagonist)
T3 construct: purchased Eurofins DiscoverX (KINOMEscan; SAFETYscan E/IC50 ELECT)
Experimental: as §1

VEGFR2 = target: T4, VEGFR2 (Homo sapiens, UniProt P35968); assay: SAFETYscan Binding; parameters: dose or concentration left out as unconfirmed; details: read-out: Max Response (%) (Antagonist)
T4 construct: purchased Eurofins DiscoverX (KINOMEscan; SAFETYscan E/IC50 ELECT)
Experimental: as §1

INSR = target: T5, INSR (Homo sapiens, UniProt P06213); assay: SAFETYscan Binding; parameters: dose or concentration left out as unconfirmed; details: read-out: Max Response (%) (Antagonist)
T5 construct: purchased Eurofins DiscoverX (KINOMEscan; SAFETYscan E/IC50 ELECT)
Experimental: as §1

PDGFRA = target: T6, PDGFRA (Homo sapiens, UniProt P16234); assay: KINOMEscan scanEDGE; assay type: binding; details: 20 uM
T6 construct: purchased Eurofins DiscoverX (KINOMEscan; SAFETYscan E/IC50 ELECT)

PIM2 = target: T7, PIM2 (Homo sapiens, UniProt Q9P1W9); assay: KINOMEscan scanEDGE; assay type: binding; details: 20 uM
T7 construct: purchased Eurofins DiscoverX (KINOMEscan; SAFETYscan E/IC50 ELECT)

KIT(D816V) = target: T8, KIT(D816V) (Homo sapiens, UniProt P10721, D816V); assay: KINOMEscan scanEDGE; assay type: binding; details: 20 uM
T8 construct: purchased Eurofins DiscoverX (KINOMEscan; SAFETYscan E/IC50 ELECT)

EDNRA = target: T9, EDNRA (Homo sapiens, UniProt P25101); assay: SAFETYscan Calcium Flux; assay type: cell-based; parameters: dose or concentration left out as unconfirmed
T9 construct: purchased Eurofins DiscoverX (KINOMEscan; SAFETYscan E/IC50 ELECT)
Experimental: as §1

ADORA2A = target: T10, ADORA2A (Homo sapiens, UniProt P29274); assay: SAFETYscan Calcium Flux; assay type: cell-based; parameters: dose or concentration left out as unconfirmed
T10 construct: purchased Eurofins DiscoverX (KINOMEscan; SAFETYscan E/IC50 ELECT)
Experimental: as §1

HTR2B = target: T11, HTR2B (Homo sapiens, UniProt P41595); assay: SAFETYscan Calcium Flux; assay type: cell-based; parameters: dose or concentration left out as unconfirmed
T11 construct: purchased Eurofins DiscoverX (KINOMEscan; SAFETYscan E/IC50 ELECT)
Experimental: as §1

CCKAR = target: T12, CCKAR (Homo sapiens, UniProt P32238); assay: SAFETYscan Calcium Flux; assay type: cell-based; parameters: dose or concentration left out as unconfirmed
T12 construct: purchased Eurofins DiscoverX (KINOMEscan; SAFETYscan E/IC50 ELECT)
Experimental: as §1

HRH1 = target: T13, HRH1 (Homo sapiens, UniProt P35367); assay: SAFETYscan Calcium Flux; assay type: cell-based; parameters: dose or concentration left out as unconfirmed
T13 construct: purchased Eurofins DiscoverX (KINOMEscan; SAFETYscan E/IC50 ELECT)
Experimental: as §1

CHRM1 = target: T14, CHRM1 (Homo sapiens, UniProt P11229); assay: SAFETYscan Calcium Flux; assay type: cell-based; parameters: dose or concentration left out as unconfirmed
T14 construct: purchased Eurofins DiscoverX (KINOMEscan; SAFETYscan E/IC50 ELECT)
Experimental: as §1

ADRA1A = target: T15, ADRA1A (Homo sapiens, UniProt P35348); assay: SAFETYscan Calcium Flux; assay type: cell-based; parameters: dose or concentration left out as unconfirmed
T15 construct: purchased Eurofins DiscoverX (KINOMEscan; SAFETYscan E/IC50 ELECT)
Experimental: as §1

ERK1 = target: T16, ERK1 (Homo sapiens, UniProt P27361); assay: KINOMEscan scanEDGE; assay type: binding; details: 20 uM
T16 construct: purchased Eurofins DiscoverX (KINOMEscan; SAFETYscan E/IC50 ELECT)

ERBB2 = target: T17, ERBB2 (Homo sapiens, UniProt P04626); assay: KINOMEscan scanEDGE; assay type: binding; details: 20 uM
T17 construct: purchased Eurofins DiscoverX (KINOMEscan; SAFETYscan E/IC50 ELECT)

PLK4 = target: T18, PLK4 (Homo sapiens, UniProt O00444); assay: KINOMEscan scanEDGE; assay type: binding; details: 20 uM
T18 construct: purchased Eurofins DiscoverX (KINOMEscan; SAFETYscan E/IC50 ELECT)

MET = target: T19, MET (Homo sapiens, UniProt P08581); assay: KINOMEscan scanEDGE; assay type: binding; details: 20 uM
T19 construct: purchased Eurofins DiscoverX (KINOMEscan; SAFETYscan E/IC50 ELECT)

PDPK1 = target: T20, PDPK1 (Homo sapiens, UniProt O15530); assay: KINOMEscan scanEDGE; assay type: binding; details: 20 uM
T20 construct: purchased Eurofins DiscoverX (KINOMEscan; SAFETYscan E/IC50 ELECT)

MEK1 = target: T21, MEK1 (Homo sapiens, UniProt Q02750); assay: KINOMEscan scanEDGE; assay type: binding; details: 20 uM
T21 construct: purchased Eurofins DiscoverX (KINOMEscan; SAFETYscan E/IC50 ELECT)

[2] = target: Rabbit Cardiac myofibrils; assay: Myofibril ATPase, rabbit cardiac; assay type: biochemical; details: 25% MHCα, 75% MHC β, at pCa 50
DBA/2J mdx mouse = assay: 12-week dosing in DBA/2J mdx mice (fibrosis); assay type: in vivo; details: 12 weeks, chow
Description: C57BL/6 (stock no. 000664), C57BL/10J (stock no. 000665, control for mdx experiments), C57BL/10ScSn-Dmd^mdx/J (mdx, stock no. 001801), and D2.B10 (DBA/2-congenic) Dmd^mdx (DBA/2J mdx, stock no. 013141) mice were from The Jackson Laboratory. Sprague-Dawley rats were purchased from Charles River Laboratories. For ex vivo experiments, mice were 10–16 weeks old. For in situ experiments, mice were 8–14 weeks of age. For in vivo chronic dosing studies, mdx and DBA/2J mdx were 4–5 weeks of age at study start. Dosing was via a 10 mL/kg suspension (1% methyl cellulose, 0.1% Tween 80 in water). For studies in 14-day-old preweaning mice, PO dosing was via syrup suspension (3 mg/kg/d). […]
For sterile muscle injury, mice were anesthetized with isoflurane and 50 μL cardiotoxin (12 × 10^–6 M, 217503, Millipore) injected in the TA muscle. […] 8 μm cryosections were cut and stained with H&E. For each analysis, more than 10 slides (per condition/group) containing 6 muscle sections/sample were used, and myofibers in the injured area were counted and measured with a Mirax digital scanner and HALO software ([68]). […] Image analysis was performed using ImarisX64 software (Bitplane AG), and fiber sizing was calculated using minimal Feret’s diameter ([69]). […] Fiber type, size, and central nucleation were quantified with analysis via SMASH ([70]) and ImageJ (NIH). […]

[3] = read-out: Max Response (%) (Agonist)
[4] = read-out: Max Response (%) (Antagonist)

T14 sequence (P11229 whole entry): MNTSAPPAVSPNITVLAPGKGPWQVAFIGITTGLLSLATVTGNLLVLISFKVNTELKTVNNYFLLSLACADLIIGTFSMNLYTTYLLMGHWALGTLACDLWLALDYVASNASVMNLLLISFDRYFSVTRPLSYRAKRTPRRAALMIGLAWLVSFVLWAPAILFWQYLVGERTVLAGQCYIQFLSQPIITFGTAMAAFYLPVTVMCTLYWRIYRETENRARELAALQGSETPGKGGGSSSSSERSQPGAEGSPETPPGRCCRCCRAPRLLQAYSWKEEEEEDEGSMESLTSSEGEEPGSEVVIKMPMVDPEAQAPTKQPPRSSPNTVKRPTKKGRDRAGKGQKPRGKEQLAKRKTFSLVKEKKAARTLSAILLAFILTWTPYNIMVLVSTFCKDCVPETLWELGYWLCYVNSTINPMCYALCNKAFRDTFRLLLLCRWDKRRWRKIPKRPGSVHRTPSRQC
T11 sequence (P41595 whole entry): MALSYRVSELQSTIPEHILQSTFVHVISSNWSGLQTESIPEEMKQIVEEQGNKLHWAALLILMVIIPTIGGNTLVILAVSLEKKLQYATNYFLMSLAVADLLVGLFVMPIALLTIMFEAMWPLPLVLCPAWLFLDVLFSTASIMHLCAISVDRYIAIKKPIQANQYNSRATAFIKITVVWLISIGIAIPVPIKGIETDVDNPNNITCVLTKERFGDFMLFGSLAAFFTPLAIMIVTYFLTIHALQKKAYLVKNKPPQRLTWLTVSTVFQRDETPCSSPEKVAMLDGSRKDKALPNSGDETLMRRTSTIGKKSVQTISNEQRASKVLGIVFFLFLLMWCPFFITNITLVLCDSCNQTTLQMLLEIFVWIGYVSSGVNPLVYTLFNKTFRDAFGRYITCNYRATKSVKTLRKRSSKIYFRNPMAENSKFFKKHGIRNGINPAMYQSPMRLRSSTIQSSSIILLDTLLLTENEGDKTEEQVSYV
T12 sequence (P32238 whole entry): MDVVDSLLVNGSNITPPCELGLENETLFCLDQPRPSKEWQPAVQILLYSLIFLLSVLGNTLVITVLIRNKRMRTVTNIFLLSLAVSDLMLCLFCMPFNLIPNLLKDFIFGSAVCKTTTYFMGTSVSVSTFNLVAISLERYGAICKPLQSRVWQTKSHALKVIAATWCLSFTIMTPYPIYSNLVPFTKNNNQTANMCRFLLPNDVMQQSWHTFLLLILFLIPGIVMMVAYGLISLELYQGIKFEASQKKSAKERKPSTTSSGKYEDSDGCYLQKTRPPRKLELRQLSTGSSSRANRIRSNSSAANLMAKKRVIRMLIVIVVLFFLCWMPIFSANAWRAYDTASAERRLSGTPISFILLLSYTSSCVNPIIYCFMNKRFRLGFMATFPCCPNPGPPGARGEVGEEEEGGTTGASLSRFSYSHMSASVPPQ
T15 sequence (P35348 whole entry): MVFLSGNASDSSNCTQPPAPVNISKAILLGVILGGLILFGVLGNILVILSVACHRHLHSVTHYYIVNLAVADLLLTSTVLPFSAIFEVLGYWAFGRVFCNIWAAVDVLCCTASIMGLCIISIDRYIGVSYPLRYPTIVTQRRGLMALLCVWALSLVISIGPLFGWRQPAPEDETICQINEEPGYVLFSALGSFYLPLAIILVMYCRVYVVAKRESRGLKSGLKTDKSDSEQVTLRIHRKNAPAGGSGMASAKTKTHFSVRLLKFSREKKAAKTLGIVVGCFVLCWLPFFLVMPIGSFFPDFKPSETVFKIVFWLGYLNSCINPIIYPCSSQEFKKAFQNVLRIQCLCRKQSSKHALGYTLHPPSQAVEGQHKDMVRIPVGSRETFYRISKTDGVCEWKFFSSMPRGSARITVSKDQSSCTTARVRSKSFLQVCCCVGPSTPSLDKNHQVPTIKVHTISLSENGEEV
T9 sequence (P25101 21-427): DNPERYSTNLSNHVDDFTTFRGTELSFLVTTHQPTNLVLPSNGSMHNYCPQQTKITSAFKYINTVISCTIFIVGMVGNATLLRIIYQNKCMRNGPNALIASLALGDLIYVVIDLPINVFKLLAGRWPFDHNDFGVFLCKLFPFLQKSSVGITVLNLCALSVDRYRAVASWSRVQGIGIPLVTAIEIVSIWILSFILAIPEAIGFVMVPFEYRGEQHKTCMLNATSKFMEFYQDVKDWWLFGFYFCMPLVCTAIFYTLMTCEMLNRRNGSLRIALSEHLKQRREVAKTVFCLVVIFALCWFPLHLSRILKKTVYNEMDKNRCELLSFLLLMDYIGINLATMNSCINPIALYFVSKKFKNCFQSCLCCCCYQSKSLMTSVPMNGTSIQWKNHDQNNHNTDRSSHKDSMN
T13 sequence (P35367 whole entry): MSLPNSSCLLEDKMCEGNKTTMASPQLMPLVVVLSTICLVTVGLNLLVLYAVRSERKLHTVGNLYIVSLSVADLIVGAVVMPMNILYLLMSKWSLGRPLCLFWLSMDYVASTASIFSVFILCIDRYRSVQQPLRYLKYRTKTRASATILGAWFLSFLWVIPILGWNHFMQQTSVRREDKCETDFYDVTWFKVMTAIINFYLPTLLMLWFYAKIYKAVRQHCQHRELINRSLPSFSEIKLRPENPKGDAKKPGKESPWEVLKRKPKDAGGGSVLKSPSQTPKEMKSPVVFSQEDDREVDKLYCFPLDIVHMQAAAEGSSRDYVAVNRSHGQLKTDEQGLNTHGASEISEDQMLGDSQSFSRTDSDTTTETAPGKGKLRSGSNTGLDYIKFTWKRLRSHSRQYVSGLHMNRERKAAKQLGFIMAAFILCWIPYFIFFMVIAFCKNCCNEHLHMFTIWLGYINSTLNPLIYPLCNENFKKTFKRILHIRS
T10 sequence (P29274 whole entry): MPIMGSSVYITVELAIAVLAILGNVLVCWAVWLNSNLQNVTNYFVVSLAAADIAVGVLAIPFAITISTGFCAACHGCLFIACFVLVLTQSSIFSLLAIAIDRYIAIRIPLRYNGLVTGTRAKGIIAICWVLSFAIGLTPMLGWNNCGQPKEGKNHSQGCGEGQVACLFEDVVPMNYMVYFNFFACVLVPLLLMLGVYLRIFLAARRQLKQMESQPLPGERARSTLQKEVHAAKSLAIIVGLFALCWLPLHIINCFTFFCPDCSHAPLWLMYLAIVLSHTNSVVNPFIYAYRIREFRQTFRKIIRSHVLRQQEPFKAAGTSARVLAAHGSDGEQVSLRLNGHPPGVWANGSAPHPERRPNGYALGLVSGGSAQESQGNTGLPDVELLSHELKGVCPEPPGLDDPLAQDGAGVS
T20 sequence (O15530 whole entry): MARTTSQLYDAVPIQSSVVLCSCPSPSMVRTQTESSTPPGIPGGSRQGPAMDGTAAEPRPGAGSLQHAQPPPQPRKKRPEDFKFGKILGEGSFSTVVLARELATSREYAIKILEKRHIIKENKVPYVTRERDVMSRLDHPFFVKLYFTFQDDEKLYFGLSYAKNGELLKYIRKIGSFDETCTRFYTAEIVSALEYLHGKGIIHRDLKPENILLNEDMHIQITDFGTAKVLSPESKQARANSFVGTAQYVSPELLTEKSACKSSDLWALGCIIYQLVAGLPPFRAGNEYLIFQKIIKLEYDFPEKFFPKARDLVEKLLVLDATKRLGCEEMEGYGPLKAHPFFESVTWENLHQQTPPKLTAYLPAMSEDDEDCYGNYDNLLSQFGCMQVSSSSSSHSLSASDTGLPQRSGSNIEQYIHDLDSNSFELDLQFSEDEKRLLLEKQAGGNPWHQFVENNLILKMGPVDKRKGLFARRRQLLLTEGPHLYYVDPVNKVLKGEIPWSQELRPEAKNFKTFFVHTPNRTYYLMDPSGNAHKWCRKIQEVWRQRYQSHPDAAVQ
T16 sequence (P27361 whole entry): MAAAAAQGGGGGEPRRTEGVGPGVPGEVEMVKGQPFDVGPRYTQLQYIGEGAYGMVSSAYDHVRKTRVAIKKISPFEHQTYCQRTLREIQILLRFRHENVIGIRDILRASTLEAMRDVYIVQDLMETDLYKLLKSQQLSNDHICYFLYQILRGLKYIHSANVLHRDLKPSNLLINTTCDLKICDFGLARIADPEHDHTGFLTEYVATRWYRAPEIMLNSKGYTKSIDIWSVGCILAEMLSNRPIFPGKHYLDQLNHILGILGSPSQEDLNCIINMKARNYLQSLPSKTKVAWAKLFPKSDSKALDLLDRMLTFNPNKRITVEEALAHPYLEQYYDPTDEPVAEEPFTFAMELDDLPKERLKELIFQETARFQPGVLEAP
T21 sequence (Q02750 whole entry): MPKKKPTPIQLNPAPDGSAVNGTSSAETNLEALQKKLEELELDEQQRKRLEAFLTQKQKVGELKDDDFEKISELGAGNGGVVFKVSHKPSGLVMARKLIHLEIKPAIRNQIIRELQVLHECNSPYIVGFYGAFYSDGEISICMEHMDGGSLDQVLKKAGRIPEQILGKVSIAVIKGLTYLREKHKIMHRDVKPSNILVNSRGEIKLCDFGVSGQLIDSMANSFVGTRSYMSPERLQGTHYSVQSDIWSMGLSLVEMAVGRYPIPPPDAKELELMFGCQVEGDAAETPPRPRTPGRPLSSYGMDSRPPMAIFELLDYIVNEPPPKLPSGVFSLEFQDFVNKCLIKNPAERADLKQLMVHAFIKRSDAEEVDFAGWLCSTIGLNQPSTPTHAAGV
T7 sequence (Q9P1W9 whole entry): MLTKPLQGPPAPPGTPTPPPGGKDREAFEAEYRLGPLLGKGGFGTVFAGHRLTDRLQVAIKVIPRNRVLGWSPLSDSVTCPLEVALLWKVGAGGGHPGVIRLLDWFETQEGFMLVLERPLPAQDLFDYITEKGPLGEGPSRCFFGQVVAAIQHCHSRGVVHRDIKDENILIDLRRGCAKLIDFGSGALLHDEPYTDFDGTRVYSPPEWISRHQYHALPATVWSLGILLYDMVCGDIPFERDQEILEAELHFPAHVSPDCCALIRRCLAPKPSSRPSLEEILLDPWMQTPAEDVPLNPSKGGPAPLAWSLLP

Which results are given for `O=c1ccc(-c2cnc(OCC(F)(F)F)nc2)nn1Cc1cncc(F)c1` [EDG-5506]?
IC50 [1]: 400 nM; binding, % of control (ADCK3): 93 % of control; Emax (ROCK1): 24.6%; Emax (LCK): 0%; Emax (VEGFR2): 18.1%; Emax (INSR): 26.9%; binding, % of control (PDGFRA): 100 % of control; binding, % of control (PIM2): 100 % of control; binding, % of control (KIT(D816V)): 87 % of control; Emax (EDNRA; [3]): 0%; Emax (EDNRA; [4]): 0%; Emax (ADORA2A; [3]): 0%; Emax (ADORA2A; [4]): 0%; Emax (HTR2B; [3]): 5.88%; Emax (HTR2B; [4]): 2.49%; Emax (CCKAR; [3]): 1.03%; Emax (CCKAR; [4]): 5.54%; Emax (HRH1; [3]): 0%; Emax (HRH1; [4]): 25.2%; Emax (CHRM1; [3]): 0.16%; Emax (CHRM1; [4]): 0%; Emax (ADRA1A; [3]): 2.19%; Emax (ADRA1A; [4]): 18.5%; binding, % of control (ERK1): 100 % of control; binding, % of control (ERBB2): 76 % of control; binding, % of control (PLK4): 90 % of control; binding, % of control (MET): 55 % of control; binding, % of control (PDPK1): 95 % of control; binding, % of control (MEK1): 78 % of control; IC50 [2]: > 100000 nM; fibrosis in TA and diaphragm muscles (DBA/2J mdx mouse): reduced fibrosis; left ventricular fibrosis (DBA/2J mdx mouse): trend toward lower fibrosis

Source: paper PMC10178848, “Modulating fast skeletal muscle contraction protects skeletal muscle in animal models of Duchenne muscular dystrophy” (The Journal of Clinical Investigation, 2023)
